In ChEMBL document CHEMBL1201862, “PubChem BioAssay data set” (2004):
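Following 48 hours of exposure in 96-well plates, responses at five concentrations were used to interpolate endpoints linearly. Here, GI50 denotes the concentration required for 50% inhibition of growth.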 Calls of active or inactive are those of the source. Cut-off read from the data, not from the text of the source: active = GI50 up to about 1.1 µM and inactive = higher.

Tests used:
Experiment in all cases: NCI tumour cell line growth inhibition, 48 h
SF-295 = test system: SF-295
Hs-578T = test system: Hs-578T
OVCAR-4 = test system: OVCAR-4
UACC-257 = test system: UACC-257
OVCAR-5 = test system: OVCAR-5
K562 = test system: K562
Malme-3M = test system: Malme-3M
KM12 = test system: KM12
SK-MEL-28 = test system: SK-MEL-28
NCI-H23 = test system: NCI-H23
OVCAR-8 = test system: OVCAR-8
IGROV-1 = test system: IGROV-1
SR = test system: SR
MDA-N = test system: MDA-N
MOLT-4 = test system: MOLT-4
SW-620 = test system: SW-620
HT-29 = test system: HT-29
SF-539 = test system: SF-539
SN12C = test system: SN12C
MDA-MB-435 = test system: MDA-MB-435

Compound | GI50 (SF-295) | GI50 (Hs-578T) | GI50 (OVCAR-4) | GI50 (UACC-257) | GI50 (OVCAR-5) | GI50 (K562) | GI50 (Malme-3M) | GI50 (KM12) | GI50 (SK-MEL-28) | GI50 (NCI-H23) | GI50 (OVCAR-8) | GI50 (IGROV-1) | GI50 (SR) | GI50 (MDA-N) | GI50 (MOLT-4) | GI50 (SW-620) | GI50 (HT-29) | GI50 (SF-539) | GI50 (SN12C) | GI50 (MDA-MB-435)
C/C(=C\[Si](C)(C)c1ccco1)C(C)(O)[C@H](C)O (some centres undefined) | 49.4 µM (inactive) | 55.3 µM (inactive) | 2.9 µM (inactive) | 24.6 µM (inactive) | > 100 µM (inactive) | 32.3 µM (inactive) | 52.8 µM (inactive) | 40.6 µM (inactive) | > 100 µM (inactive) | 30.2 µM (inactive) | 55.1 µM (inactive) | > 100 µM (inactive) | 33.8 µM (inactive) | 54.6 µM (inactive) | 33.4 µM (inactive) | 84.9 µM (inactive) | 41 µM (inactive) | > 100 µM (inactive) | 32.7 µM (inactive) | 45.3 µM (inactive)
COc1ccc2c3c1O[C@H]1[C@@H](O)CC[C@@]4(O)[C@@H](C2)N(C)CC[C@]314 | > 100 µM (inactive) | > 100 µM (inactive) | > 100 µM (inactive) | > 100 µM (inactive) | > 100 µM (inactive) | > 100 µM (inactive) | > 100 µM (inactive) | > 100 µM (inactive) | > 100 µM (inactive) | > 100 µM (inactive) | > 100 µM (inactive) | > 100 µM (inactive) | > 100 µM (inactive) | > 100 µM (inactive) | > 100 µM (inactive) | > 100 µM (inactive) | > 100 µM (inactive) | > 100 µM (inactive) | > 100 µM (inactive) | > 100 µM (inactive)
C=C1C(=O)OC2C1C(OC(=O)/C(C)=C/C)CC(O)(CCl)C1C(O)C=C(C)C21O (centres undefined) | 53 µM (inactive) | > 62.1 µM (inactive) | 14.2 µM (inactive) | 12.1 µM (inactive) | 16.7 µM (inactive) | 3.78 µM (inactive) | 2.22 µM (inactive) | 20.5 µM (inactive) | 13.3 µM (inactive) | 13.8 µM (inactive) | 10.9 µM (inactive) | 14.9 µM (inactive) | 3.94 µM (inactive) | 14.9 µM (inactive) | 3.92 µM (inactive) | 3.85 µM (inactive) | 15.7 µM (inactive) | 20.6 µM (inactive) | 14.4 µM (inactive) | 23 µM (inactive)
O=[N+]([O-])c1ccc(Sc2c3ccccc3nc3ccccc23)cn1 | > 100 µM (inactive) | 18 µM (inactive) | 21.2 µM (inactive) | 15.5 µM (inactive) | > 62.4 µM (inactive) | 2.49 µM (inactive) | 3.24 µM (inactive) | 33.1 µM (inactive) | 24.7 µM (inactive) | 15.9 µM (inactive) | 15.3 µM (inactive) | 32.4 µM (inactive) | 3.12 µM (inactive) | 14.3 µM (inactive) | 2.19 µM (inactive) | 3.88 µM (inactive) | 9.02 µM (inactive) | 8.77 µM (inactive) | 18.7 µM (inactive) | 16.7 µM (inactive)
O=[N+]([O-])c1nccn1CCCNc1ccnc2cc(Cl)ccc12 | 3.8 µM (inactive) | > 100 µM (inactive) | 6.41 µM (inactive) | 3.44 µM (inactive) | 14.4 µM (inactive) | 4.24 µM (inactive) | 29 µM (inactive) | 5.37 µM (inactive) | > 9.86 µM (inactive) | 5.52 µM (inactive) | 7.4 µM (inactive) | 7.71 µM (inactive) | 2.81 µM (inactive) | 7.29 µM (inactive) | 3.64 µM (inactive) | 4.23 µM (inactive) | 3.94 µM (inactive) | 5.48 µM (inactive) | 3.3 µM (inactive) | 6.71 µM (inactive)
C[C@]12CC[C@H](OC3OC(CO)C(O)C(O)C3O)C[C@H]1CC[C@@H]1[C@@H]2CC[C@]2(C)[C@@H](C3=CCOC3=O)CC[C@]12O (some centres undefined) [ACTODIGIN] | 1.45 µM (inactive) | 40.9 µM (inactive) | 41 µM (inactive) | – | > 50 µM (inactive) | 21.5 µM (inactive) | 2.09 µM (inactive) | 19.2 µM (inactive) | 22.5 µM (inactive) | 15.8 µM (inactive) | – | 28.4 µM (inactive) | 2.96 µM (inactive) | > 100 µM (inactive) | – | 18.6 µM (inactive) | 41.1 µM (inactive) | 0.447 µM (active) | 20.1 µM (inactive) | > 100 µM (inactive)
Nc1ncnc2c1nc(Cl)n2[C@@H]1O[C@@H]2COP(=O)(O)O[C@H]2[C@H]1O [TOCLADESINE] | 51.2 µM (inactive) | 28.7 µM (inactive) | 16.6 µM (inactive) | 42.6 µM (inactive) | 27.7 µM (inactive) | 2.82 µM (inactive) | 152 µM (inactive) | 75.5 µM (inactive) | 295 µM (inactive) | 16.5 µM (inactive) | 5.42 µM (inactive) | 24.5 µM (inactive) | 4.7 µM (inactive) | 10.9 µM (inactive) | 7 µM (inactive) | 12.1 µM (inactive) | 8.39 µM (inactive) | 49 µM (inactive) | 12.6 µM (inactive) | 5.41 µM (inactive)
O=C(N/C(=C/c1ccc(Cl)cc1)c1nc2ccccc2c(=O)n1Nc1ccc([N+](=O)[O-])cc1[N+](=O)[O-])c1ccccc1 | > 100 µM (inactive) | > 100 µM (inactive) | > 100 µM (inactive) | > 100 µM (inactive) | > 100 µM (inactive) | > 100 µM (inactive) | > 100 µM (inactive) | > 100 µM (inactive) | > 100 µM (inactive) | > 100 µM (inactive) | > 100 µM (inactive) | > 100 µM (inactive) | > 100 µM (inactive) | > 100 µM (inactive) | > 100 µM (inactive) | > 100 µM (inactive) | > 100 µM (inactive) | > 100 µM (inactive) | > 100 µM (inactive) | > 100 µM (inactive)
O=c1cc(-c2ccccc2F)[nH]c2ccc(N3CCCC3)cc12 | – | 0.0201 µM (active) | 0.0269 µM (active) | 0.1 µM (active) | 0.1 µM (active) | 0.0257 µM (active) | > 100 µM (inactive) | 0.0955 µM (active) | 0.465 µM (active) | 0.00155 µM (active) | 0.0624 µM (active) | 0.792 µM (active) | 0.498 µM (active) | 0.0135 µM (active) | 0.078 µM (active) | < 0.001 µM (active) | 0.0284 µM (active) | < 0.001 µM (active) | 0.17 µM (active) | < 0.001 µM (active)
CCOC(CN(C)C(=O)Nc1ccc(Cl)c(Cl)c1)OCC | > 10 µM (inactive) | > 10 µM (inactive) | > 10 µM (inactive) | > 10 µM (inactive) | – | > 10 µM (inactive) | > 10 µM (inactive) | > 10 µM (inactive) | > 10 µM (inactive) | > 10 µM (inactive) | > 10 µM (inactive) | > 10 µM (inactive) | > 10 µM (inactive) | > 10 µM (inactive) | > 10 µM (inactive) | > 10 µM (inactive) | > 10 µM (inactive) | > 10 µM (inactive) | > 10 µM (inactive) | > 10 µM (inactive)
CC1CNC(c2cccc(-c3nc(-c4cccc(C5=NC(C)CN5)c4)nc(N(C)C)n3)c2)=N1 (centres undefined) | 3.61 µM (inactive) | 2.74 µM (inactive) | 0.771 µM (active) | 3.16 µM (inactive) | 2.57 µM (inactive) | 0.682 µM (active) | 3.87 µM (inactive) | 1.67 µM (inactive) | 3.13 µM (inactive) | 2.14 µM (inactive) | 2.15 µM (inactive) | 3.28 µM (inactive) | 0.45 µM (active) | 1.52 µM (inactive) | 0.373 µM (active) | 0.721 µM (active) | 0.895 µM (active) | 0.454 µM (active) | 0.948 µM (active) | 1.19 µM (inactive)
Nc1c2c(nc3cc(F)c(F)cc13)CCC2 | 41.2 µM (inactive) | > 100 µM (inactive) | 58.2 µM (inactive) | 44.4 µM (inactive) | 49.9 µM (inactive) | 35.3 µM (inactive) | 41.7 µM (inactive) | 50.2 µM (inactive) | 52.7 µM (inactive) | 99.5 µM (inactive) | 44.5 µM (inactive) | 45.7 µM (inactive) | 24.2 µM (inactive) | 49 µM (inactive) | 30.5 µM (inactive) | 29.2 µM (inactive) | 31.8 µM (inactive) | 46 µM (inactive) | 43.2 µM (inactive) | 54 µM (inactive)
CCN(CC)CCCNc1ncc(C)c2c1c1ccc3c(O)cccc3c1n2C | 1.73 µM (inactive) | 1.68 µM (inactive) | 1.66 µM (inactive) | 16.3 µM (inactive) | 5.57 µM (inactive) | 1.5 µM (inactive) | 14.7 µM (inactive) | 1.52 µM (inactive) | 9.82 µM (inactive) | 1.8 µM (inactive) | 1.43 µM (inactive) | 1.96 µM (inactive) | 0.282 µM (active) | 1.65 µM (inactive) | 0.043 µM (active) | 0.883 µM (active) | 1.21 µM (inactive) | 2.11 µM (inactive) | 2.7 µM (inactive) | 8.07 µM (inactive)
CCCCCCCCCCCCCCCCCc1nc(Cl)nc(Cl)c1Cl | > 100 µM (inactive) | > 100 µM (inactive) | > 100 µM (inactive) | – | > 100 µM (inactive) | > 100 µM (inactive) | > 100 µM (inactive) | > 100 µM (inactive) | > 100 µM (inactive) | > 100 µM (inactive) | > 100 µM (inactive) | > 100 µM (inactive) | 52.2 µM (inactive) | > 100 µM (inactive) | 76.7 µM (inactive) | > 100 µM (inactive) | > 100 µM (inactive) | > 100 µM (inactive) | > 100 µM (inactive) | > 100 µM (inactive)
